This is an account of results in patent publication US7977363B2, “Biphenyl-thiazolo-carboxamides” (Bayer Cropscience AG, priority 2004, dated 2011).

The first data set has as its system apple scab fungus Venturia inaequalis. Nature of the data set: Venturia Test (Apple)/Protective. Format: in vivo. The following applies: 240 h, protective, evaluated 10 days after inoculation, read-out: Efficacy in %. As for the experimental part: (§1) [table] To produce a suitable preparation of active compound, 1 part by weight of active compound is mixed with the stated amounts of solvent and emulsifier, and the concentrate is diluted with water to the desired concentration. In order to test the protective activity, young plants are sprayed with the active compound preparation at the stated application rate. After the spray coating dries, the plants are inoculated with an aqueous conidial suspension of the apple scab fungus Venturia inaequalis and then remain in an incubation cabinet for 1 day at approx. 20° C. and 100% relative humidity. The plants are then placed in the greenhouse at approx. 21° C. and at a relative humidity of approx. 90%. The results are evaluated 10 days after the inoculation. An efficacy of 0% corresponds to that of the control, while an efficacy of 100% means that no infestation is observed.
`Cc1nc(C(F)F)c(C(=O)Nc2ccc(F)cc2-c2ccc(Cl)c(Cl)c2)s1` [drawing 56]: the pest or weed control at 100 g/ha is 100%. The same measure, in the same setting: as for `Cc1nc(C(F)F)c(C(=O)Nc2c(F)cccc2-c2ccc(Cl)c(Cl)c2)s1` [drawing 57], the figure is 100%; as for `Cc1nc(C(F)(F)F)c(C(=O)Nc2ccc(F)cc2-c2ccc(Cl)c(Cl)c2)s1` [drawing 58], 100%; as for `Cc1nc(C(F)(F)F)c(C(=O)Nc2c(F)cccc2-c2ccc(Cl)c(Cl)c2)s1` [drawing 59], 100%.

For the compound `Cc1nc(C(F)F)c(C(=O)Nc2c(F)cccc2-c2ccc(Cl)c(F)c2)s1` [drawing 60], the pest or weed control at 100 g/ha amounted to 100%. Same read-out and setting: the figure for `Cc1nc(C(F)(F)F)c(C(=O)Nc2ccc(F)cc2-c2ccc(Cl)c(F)c2)s1` [drawing 61] is 100%; for `Cc1nc(C(F)(F)F)c(C(=O)Nc2ccc(F)cc2-c2ccc(Cl)c(C)c2)s1` [drawing 62] it is 100%; for `Cc1nc(C(F)F)c(C(=O)Nc2ccc(F)cc2-c2ccc(Cl)c(C)c2)s1` [drawing 63] it is 100%. On the same count and under the same terms, as for `Cc1nc(C(F)F)c(C(=O)Nc2ccc(F)cc2-c2cccc(C)c2F)s1` [drawing 64], the figure is 98%.

For the next data set, the system named is Podosphaera leucotricha. Nature of the data set: Podosphaera Test (Apple)/Protective. Format: in vivo. The following applies: 240 h, protective, evaluated 10 days after inoculation, read-out: Efficacy in %. As for the experimental part:
as §1, with “spore” for “conidial”, “Podosphaera leucotricha.” for “the apple scab fungus Venturia inaequalis and then remain in an incubation cabinet for 1 day at approx. 20° C. and 100% relative humidity.”, “23°” for “21°”, “70%.” for “90%.”
As to `Cc1nc(C(F)F)c(C(=O)Nc2ccc(F)cc2-c2ccc(Cl)c(Cl)c2)s1` [drawing 47], the pest or weed control at 100 g/ha worked out at 100%. Regarding `Cc1nc(C(F)F)c(C(=O)Nc2c(F)cccc2-c2ccc(Cl)c(Cl)c2)s1` [drawing 48], the pest or weed control at 100 g/ha was 100%. Still for that read-out and setting: as for `Cc1nc(C(F)(F)F)c(C(=O)Nc2ccc(F)cc2-c2ccc(Cl)c(Cl)c2)s1` [drawing 49], the figure is 100%; as for `Cc1nc(C(F)(F)F)c(C(=O)Nc2c(F)cccc2-c2ccc(Cl)c(Cl)c2)s1` [drawing 50], 100%.

For the compound `Cc1nc(C(F)F)c(C(=O)Nc2c(F)cccc2-c2ccc(Cl)c(F)c2)s1` [drawing 51], the pest or weed control at 100 g/ha is 100%. Same read-out and setting: the figure for `Cc1nc(C(F)(F)F)c(C(=O)Nc2ccc(F)cc2-c2ccc(Cl)c(F)c2)s1` [drawing 52] is 100%; for `Cc1nc(C(F)(F)F)c(C(=O)Nc2ccc(F)cc2-c2ccc(Cl)c(C)c2)s1` [drawing 53] it is 100%; for `Cc1nc(C(F)F)c(C(=O)Nc2ccc(F)cc2-c2ccc(Cl)c(C)c2)s1` [drawing 54] it is 100%. Consider `Cc1nc(C(F)F)c(C(=O)Nc2ccc(F)cc2-c2cccc(C)c2F)s1` [drawing 55], for which the pest or weed control at 100 g/ha came out at 94%.

The test system of another data set is Alternaria solani. Nature of the data set: Alternaria Test (Tomato)/Protective. Format: in vivo. The following applies: protective, 750 g/ha, evaluated 7 days after inoculation. On the procedure:
[table] To produce a suitable preparation of active compound, 1 part by weight of active compound is mixed with the stated amounts of solvent and emulsifier, and the concentrate is diluted with water to the desired concentration. In order to test the protective activity, young tomato plants are sprayed with the active compound preparation at the stated application rate. One day after treatment, the plants are inoculated with a spore suspension of Alternaria solani and then remain for 24 hours at 100% relative humidity and 20° C. The plants are then placed into in environment of 96% relative humidity at a temperature of 20° C. The results are evaluated 7 days after the inoculation. An efficacy of 0% corresponds to that of the control, while an efficacy of 100% means that no infestation is observed.
Take `Cc1nc(C(F)F)c(C(=O)Nc2c(F)cccc2-c2ccc(Cl)c(F)c2)s1` [drawing 80]: the Efficacy in % was found to be 100%.

Compound `Cc1nc(C(F)(F)F)c(C(=O)Nc2ccc(F)cc2-c2ccc(Cl)c(F)c2)s1` [drawing 81] returned an Efficacy in % of 100%.

The subject of another data set is Botrytis cinerea. Nature of the data set: Botrytis Test (Bean)/Protective. Format: in vivo. Particulars: 48 h, protective, evaluated 2 days after inoculation, read-out: Efficacy in %. On the procedure: [table] To produce a suitable preparation of active compound, 1 part by weight of active compound is mixed with the stated amounts of solvent and emulsifier, and the concentrate is diluted with water to the desired concentration. In order to test the protective activity, young plants are sprayed with the active compound preparation at the stated application rate. After the spray coating dries, 2 small pieces of agar that are infested with Botrytis cinerea are placed on each leaf. The inoculated plants are placed in a darkened chamber at 20° C. and 100% relative humidity. The size of the infestation blotches on the leaves is evaluated 2 days after the inoculation. An efficacy of 0% corresponds to that of the control, while an efficacy of 100% means that no infestation is observed.
As for `Cc1nc(C(F)F)c(C(=O)Nc2ccc(F)cc2-c2ccc(Cl)c(Cl)c2)s1` [drawing 65], the pest or weed control at 500 g/ha is 100%. On the same count and under the same terms, as for `Cc1nc(C(F)F)c(C(=O)Nc2c(F)cccc2-c2ccc(Cl)c(Cl)c2)s1` [drawing 66], the figure is 100%.

`Cc1nc(C(F)(F)F)c(C(=O)Nc2ccc(F)cc2-c2ccc(Cl)c(Cl)c2)s1` [drawing 67]: the pest or weed control at 500 g/ha came to 99%. On the same count and under the same terms, as for `Cc1nc(C(F)(F)F)c(C(=O)Nc2c(F)cccc2-c2ccc(Cl)c(Cl)c2)s1` [drawing 68], the figure is 98%; as for `Cc1nc(C(F)F)c(C(=O)Nc2c(F)cccc2-c2ccc(Cl)c(F)c2)s1` [drawing 69], 100%; as for `Cc1nc(C(F)(F)F)c(C(=O)Nc2ccc(F)cc2-c2ccc(Cl)c(F)c2)s1` [drawing 70], 100%.

On to `Cc1nc(C(F)(F)F)c(C(=O)Nc2ccc(F)cc2-c2ccc(Cl)c(C)c2)s1` [drawing 71], for which the pest or weed control at 500 g/ha turned out to be 100%.

Regarding `Cc1nc(C(F)F)c(C(=O)Nc2ccc(F)cc2-c2ccc(Cl)c(C)c2)s1` [drawing 72], the pest or weed control at 500 g/ha worked out at 100%. On the same count and under the same terms, as for `Cc1nc(C(F)F)c(C(=O)Nc2ccc(F)cc2-c2cccc(C)c2F)s1` [drawing 73], the figure is 98%.

A further data set relates to Pyrenophora teres. Nature of the data set: Pyrenophora teres Test (Barley)/Protective. Format: in vivo. The following applies: protective, 500 g/ha, evaluated 7 days after inoculation. As for the experimental part: [table] To produce a suitable preparation of active compound, 1 part by weight of active compound is mixed with the stated amounts of solvent and emulsifier, and the concentrate is diluted with water to the desired concentration. In order to test the protective activity, young plants are sprayed with the active compound preparation at the stated application rate. After the spray coating dries, the plants are sprayed with a conidial suspension of Pyrenophora teres. The plants remain in an incubation cabinet for 48 hours at 20° C. and 100% relative humidity. The plants are then placed in a greenhouse at a temperature of approx. 20° C. and a relative humidity of 80%. The results are evaluated 7 days after the inoculation. An efficacy of 0% corresponds to that of the control, while an efficacy of 100% means that no infestation is observed.
As for `Cc1nc(C(F)F)c(C(=O)Nc2ccc(F)cc2-c2ccc(Cl)c(Cl)c2)s1` [drawing 74], the Efficacy in % came to 100%. For the compound `Cc1nc(C(F)F)c(C(=O)Nc2c(F)cccc2-c2ccc(Cl)c(F)c2)s1` [drawing 75], the Efficacy in % came to 100%. `Cc1nc(C(F)(F)F)c(C(=O)Nc2ccc(F)cc2-c2ccc(Cl)c(F)c2)s1` [drawing 76] registered an Efficacy in % of 100%. `Cc1nc(C(F)F)c(C(=O)Nc2ccc(F)cc2-c2ccc(Cl)c(F)c2)s1` [drawing 77]: the Efficacy in % came out at 100%.

For the compound `Cc1nc(C(F)F)c(C(=O)Nc2ccc(F)cc2-c2ccc(Cl)c(C)c2)s1` [drawing 78], the Efficacy in % is recorded as 100%.

The compound `Cc1nc(C(F)F)c(C(=O)Nc2ccc(F)cc2-c2cccc(C)c2F)s1` [drawing 79] showed an Efficacy in % of 100%.

Test system in another data set: not listed separately
Nature of the data set: Log P determination by HPLC on reversed-phase column (EEC Directive 79/831, Annex V.A8). Particulars: reversed-phase HPLC column (C18), pH 2.3; read-out: log P (pH 2.3). Format: physicochemical. As for the experimental part: The determination of the Log P values occurred according to EEC Directive 79/831, Annex V.A8 using HPLC (High Performance Liquid Chromatography) on a reversed-phase column (C 18). Temperature: 43° C. Eluents for determination in the acidic range (pH 2.3): 0.1% aqueous phosphoric acid, acetonitrile; linear gradient of 10% acetonitrile to 90% acetonitrile. Calibration took place using unbranched alkane-2-ones (with 3 to 16 carbon atoms) with known Log P values (the Log P values were determined on the basis of the retention times by way of linear interpolation between two consecutive alkanones).
Turning to `Cc1nc(C(F)(F)F)c(C(=O)Nc2ccc(F)cc2-c2ccc(Cl)c(F)c2)s1` [Compound 2.18, N-(4′-chloro-3′,5-difluorobiphenyl-2-yl)-2-methyl-4-(trifluoromethyl)-1,3-thiazole-5-carboxamide], the chromatographic logP worked out at 3.67. On the same count and under the same terms, as for `Nc1ccc(F)cc1-c1ccc(Cl)c(F)c1` [III-1, 4′-chloro-3′,5-difluorobiphenyl-2-amine], the figure is 3.18.

The same data set, now with this note: reversed-phase HPLC column (C18); HPLC, C18 reversed phase, 43° C., acidic range (pH 2.3); read-out: Log P.
Turning to `Cc1nc(C(F)(F)F)c(C(=O)Nc2ccc(F)cc2-c2ccc(Cl)c(Cl)c2)s1` [Compound 2.11, N-(3′,4′-dichloro-5-fluorobiphenyl-2-yl)-2-methyl-4-(trifluoromethyl)-1,3-thiazole-5-carboxamide], the chromatographic logP was found to be 3.93.

In the case of `Cc1nc(C(F)F)c(C(=O)Nc2ccc(F)cc2-c2ccc(Cl)c(Cl)c2)s1` [Compound 2.12], the chromatographic logP came to 3.63.

Regarding `Cc1nc(C(F)F)c(C(=O)Nc2c(F)cccc2-c2ccc(Cl)c(Cl)c2)s1` [Compound 2.13], the chromatographic logP was found to be 3.43.

On to `Cc1nc(C(F)(F)F)c(C(=O)Nc2c(F)cccc2-c2ccc(Cl)c(Cl)c2)s1` [Compound 2.14], for which the chromatographic logP came out at 3.68.

For `Cc1nc(C(F)F)c(C(=O)Nc2c(F)cccc2-c2ccc(Cl)c(F)c2)s1` [Compound 2.16], the chromatographic logP came out at 3.16. Same read-out and setting: the figure for `Cc1nc(C(F)F)c(C(=O)Nc2ccc(F)cc2-c2ccc(Cl)c(F)c2)s1` [Compound 2.17] is 3.36; for `Cc1nc(C(F)(F)F)c(C(=O)Nc2ccc(F)cc2-c2ccc(Cl)c(C)c2)s1` [Compound 2.20] it is 3.99.

Regarding `Cc1nc(C(F)F)c(C(=O)Nc2ccc(F)cc2-c2ccc(Cl)c(C)c2)s1` [Compound 2.21], the chromatographic logP worked out at 3.68.
